# Measured values taken from EP4624466A1, “DEGRADER FOR DECOMPOSING CMET PROTEIN, AND PHARMACEUTICAL COMPOSITION COMPRISING SAME” (Innocure Therapeutics, Inc., priority 2022, dated 2024).
# Like-named read-outs stand apart in the source and are kept apart here.
# How the values were obtained:
# SNU-638 = assay: Cell viability / antiproliferative assay (WST-8), SNU-638; assay type: cell-based, human; conditions: read-out: SNU-638 IC50
# Protocol: c-MET overexpressing human gastric cancer cell lines [MKN45] and [SNU638] were cultured in RPMI medium with 10% fetal bovine serum, penicillin (100U/ml), and streptomycin (100mg/ml), and c-MET exon 14 skipping mutant human gastric cancer cell lines [Hs746T] were cultured in DMEM media. The c-MET overexpressing human lung cancer cell line EBC-1 was cultured in MEM media with the addition of 10% fetal bovine serum, penicillin (100U/ml), and streptomycin (100mg/ml). […] The compound synthesized in accordance with the present invention was prepared with a raw material solution of 10 mM dissolved in DMSO (dimethyl sulfoxide), and was sequentially diluted and processed.
# In order to observe the inhibitory activity on cell growth, cells were dispensed in a 96-well plate at a concentration of 5,000 cells/well, and then treated with the compound prepared at various concentrations for 72 hours. The viability of the cells was calculated using GraphicPad Prism 8.0 software by adding 10 ml per well of WST-8 (water soluble tetrazolium salt) sample, which reacts with dehydrogenase present in the electron transport system of mitochondria to produce formazon, incubated for 2 hours, and measured absorbance at 450 nm.
# MKN-45 = assay: Cell viability / antiproliferative assay (WST-8), MKN-45; conditions: read-out: MKN-45 IC50;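 note: MKN-45 is a human gastric cancer line overexpressing c-MET, growth inhibition read as WST-8 formazan absorbance at 450 nm after 2 h dye incubation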
# c-MET = c-MET (Homo sapiens, UniProt P08581); assay: c-MET protein degradation (Simple Western), MKN-45; assay type: cell-based; parameters: assess the resolution of the compound of the present invention for c-MET expressed in cells; endogenous in cells; host or cells: MKN45 (human gastric cancer); conditions: c-MET overexpressing gastric cancer cell line MKN-45, treated 24 hours
# Protocol: In order to assess the resolution of the compound of the present invention for c-MET expressed in cells, cells were dispensed in a 12-well plate at a concentration of 2 × 10^5 cells/well, and then gastric cancer cell lines were treated with samples for 24 hours and lung cancer cell lines were treated for 48 hours. Cell lysates were collected using a scraper on ice, centrifuged at 4°C15,000 rpm for 30 min to obtain a protein-containing supernatant. Protein expression was then measured using the Simple Western Automated Western Blot System Abby instrument using 3 µg of protein for each sample. SDS and heat-induced denaturation proteins were separated by molecular weight, attached to capillary, reacted with anti-c-MET or anti-GAPDH antibodies, which are primary antibodies, and then reacted with HRP-conjugated secondary antibodies, and analyzed the protein expression signal with compass software. Protein expression was normalized based on the expression value of GAPDH, and protein development in each sample was measured as a percentage (%) based on 100% of samples treated with 0.1% DMSO carriers, and DC50 (concentration of a compound where 50% protein inhibition is achieved) was calculated from the change in protein expression amount due to compound treatment.
# [1] = SNU-638 cells, 72 hours, WST-8, Table 2
# [2] = MKN-45 cells, 72 hours, WST-8, Table 1
# [3] = MKN-45 cells, 72 hours, WST-8, Table 2
# c-MET, sequence (P08581 25-1390): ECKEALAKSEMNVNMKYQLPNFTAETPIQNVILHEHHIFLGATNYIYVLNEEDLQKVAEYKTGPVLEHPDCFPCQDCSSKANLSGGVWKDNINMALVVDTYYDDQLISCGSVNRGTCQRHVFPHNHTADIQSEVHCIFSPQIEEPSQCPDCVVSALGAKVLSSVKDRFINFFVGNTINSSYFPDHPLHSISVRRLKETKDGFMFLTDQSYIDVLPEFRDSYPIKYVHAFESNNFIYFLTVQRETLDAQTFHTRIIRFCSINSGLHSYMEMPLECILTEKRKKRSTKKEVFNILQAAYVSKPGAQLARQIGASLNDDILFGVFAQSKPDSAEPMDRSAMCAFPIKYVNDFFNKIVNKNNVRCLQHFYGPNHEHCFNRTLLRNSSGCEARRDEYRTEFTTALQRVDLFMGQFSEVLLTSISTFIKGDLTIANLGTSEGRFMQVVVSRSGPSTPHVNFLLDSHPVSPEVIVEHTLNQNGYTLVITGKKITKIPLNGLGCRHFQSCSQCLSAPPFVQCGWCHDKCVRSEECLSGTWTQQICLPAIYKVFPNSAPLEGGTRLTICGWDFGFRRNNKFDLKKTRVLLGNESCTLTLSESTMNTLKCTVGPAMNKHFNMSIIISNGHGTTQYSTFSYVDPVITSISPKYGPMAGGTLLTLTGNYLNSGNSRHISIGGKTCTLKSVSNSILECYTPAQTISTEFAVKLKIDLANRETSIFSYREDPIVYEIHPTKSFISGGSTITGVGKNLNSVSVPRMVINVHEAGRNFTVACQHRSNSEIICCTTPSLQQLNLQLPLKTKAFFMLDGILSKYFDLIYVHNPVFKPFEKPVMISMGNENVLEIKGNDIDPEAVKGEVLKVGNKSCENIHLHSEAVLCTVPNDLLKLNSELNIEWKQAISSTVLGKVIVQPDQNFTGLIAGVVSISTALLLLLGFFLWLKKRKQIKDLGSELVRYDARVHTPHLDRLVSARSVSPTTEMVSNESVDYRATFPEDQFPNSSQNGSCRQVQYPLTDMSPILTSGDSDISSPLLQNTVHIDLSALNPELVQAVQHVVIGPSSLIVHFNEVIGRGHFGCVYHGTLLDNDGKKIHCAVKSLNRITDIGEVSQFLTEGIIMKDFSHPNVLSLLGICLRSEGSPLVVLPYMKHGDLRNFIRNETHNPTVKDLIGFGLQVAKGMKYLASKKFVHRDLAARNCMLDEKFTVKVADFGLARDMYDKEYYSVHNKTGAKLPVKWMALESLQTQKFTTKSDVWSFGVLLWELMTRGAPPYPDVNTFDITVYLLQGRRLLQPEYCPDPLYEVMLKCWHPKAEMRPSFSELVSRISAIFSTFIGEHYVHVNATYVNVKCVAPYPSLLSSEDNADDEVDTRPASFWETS
SMILES,"IC50 (MKN-45; Homo sapiens, MKN-45, 72 h)",DC50 (c-MET; Table 2),further results
Cc1nn(C2CCC(=O)NC2=O)c(=O)c2ccc(N3CCN(C[C@@H]4CN(CCN5CCC(COc6cnc(-c7cccc(Cn8nc(-c9cccc(C#N)c9)ccc8=O)c7)nc6)CC5)CCO4)CC3)cc12 (stereo partly shown) [ICT-0001315],,,IC50 (SNU-638; [1]): < 100 nM
"Cn1cc(-c2cnc3c(nnn3C[C@@H]3CN(c4ncc(-c5ccc(CN6CCN(C(=O)CCCCCCNc7ccc8c(=O)n(C9CCC(=O)NC9=O)ncc8c7)CC6)cc5)cn4)CCO3)n2)cn1 (stereo partly drawn) [ICT-0000925, 3-(6-((7-(4-(4-(2-((S)-2-((5-(1-methyl-1H-pyrazole-4-yl)-1H-[1,2,3]triazolo[4,5-b]pyrazine-1-yl)methyl)morpholino)pyrimidine-5-yl)benzyl)piperazine-1-yl)7-oxoheptyl)amino)1-oxopthalazine-2(1H)-yl)piperidine-2,6-dione]",,,"IC50 (MKN-45; [2]): < 100 nM; DC50 (c-MET; Table 1): < 100 nM; IC50 (SNU-638; SNU-638 cells, 72 hours, WST-8, Table 1): < 100 nM"
"Cn1cc(-c2cnc3c(nnn3C[C@@H]3CN(c4ncc(-c5ccc(CN6CCN(C(=O)CCCNc7ccc8c(=O)n(C9CCC(=O)NC9=O)ncc8c7)CC6)cc5)cn4)CCO3)n2)cn1 (stereo partly drawn) [ICT-0000922, 3-{6-[(4-{4-[(4-{2-[(2S)-2-{[5-(1-methyl-1H-pyrazole-4-yl)-1H-[1,2,3]triazolo[4,5-b]pyrazine-1-yl]methyl}morpholine-4-il]pyrimidine-5-yl}phenyl)methyl]piperazine-1-yl}-4-oxobutyl)amino]-1-oxo-1,2-dihydroptalazine-2-yl}piperidine-2,6-dione]",< 100 nM,,"DC50 (c-MET; Table 1): < 100 nM; IC50 (SNU-638; Homo sapiens, SNU-638, 72 h): < 100 nM"
Cc1nn(C2CCC(=O)NC2=O)c(=O)c2ccc(N3CCN(C4CCN(CC(=O)N5CCC(COc6cnc(-c7cccc(Cn8nc(-c9cccc(C#N)c9)ccc8=O)c7)nc6)CC5)CC4)CC3)cc12 (stereo not shown) [ICT-0001255],< 100 nM,< 100 nM,"IC50 (SNU-638; Homo sapiens, SNU-638, 72 h): < 100 nM"
Cc1cc2c(=O)n(C3CCC(=O)NC3=O)nc(C)c2cc1N1CCN(CC2CCN(CCN3CCC(COc4cnc(-c5cccc(Cn6nc(-c7cccc(C#N)c7)ccc6=O)c5)nc4)CC3)CC2)CC1 (stereo not shown) [ICT-0001319],,,IC50 (SNU-638; [1]): < 100 nM
Cc1nn(C2CCC(=O)NC2=O)c(=O)c2ccc(N3CCO[C@H](CN4CCN(CC(=O)N5CCC(COc6cnc(-c7cccc(Cn8nc(-c9cccc(C#N)c9)ccc8=O)c7)nc6)CC5)CC4)C3)cc12 (stereo partly shown) [ICT-0001229],< 100 nM,< 100 nM,
Cc1nn(C2CCC(=O)NC2=O)c(=O)c2ccc(N3CCN(C4CCN(C(=O)CN5CCC(COc6cnc(-c7cccc(Cn8nc(-c9cccc(C#N)c9)ccc8=O)c7)nc6)CC5)CC4)CC3)cc12 (stereo not shown) [ICT-0001237],< 100 nM,< 100 nM,
"Cn1cc(-c2cnc3c(nnn3C[C@@H]3CN(c4ncc(-c5ccc(CN6CCN(C(=O)CCCCNc7cccc8cnn(C9CCC(=O)NC9=O)c(=O)c78)CC6)cc5)cn4)CCO3)n2)cn1 (stereo partly drawn) [ICT-0000959, 3-{8-[(5-{4-[(4-{2-[(2S)-2-{[5-(1-methyl-1H-pyrazole-4-yl)-1H-[1,2,3]triazolo[4,5-b]pyrazine-1-yl]methyl}morpholine-4-il]pyrimidine-5-yl}phenyl)methyl]piperazine-1-yl}-5-oxopentyl)amino]-1-oxo-1,2-dihydropthalazine-2-yl}piperidine-2,6-dione]",,,IC50 (MKN-45; [2]): < 100 nM; DC50 (c-MET; Table 1): < 100 nM
Cc1nn(C2CCC(=O)NC2=O)c(=O)c2cc(N3CCC(N4CCN(CC(=O)N5CCC(COc6cnc(-c7cccc(Cn8nc(-c9cccc(C#N)c9)ccc8=O)c7)nc6)CC5)CC4)CC3)ccc12 (stereo not shown) [ICT-0001270],< 100 nM,< 100 nM,
Cc1nn(C2CCC(=O)NC2=O)c(=O)c2ccc(N3CCC(CN4CCN(CC(=O)N5CCC(COc6cnc(-c7cccc(Cn8nc(-c9cccc(C#N)c9)ccc8=O)c7)nc6)CC5)CC4)CC3)cc12 (stereo not shown) [ICT-0001213],< 100 nM,< 100 nM,
N#Cc1cccc(-c2ccc(=O)n(Cc3cccc(-c4ncc(OCC5CCN(CCCC#Cc6ccc7c(=O)n(C8CCC(=O)NC8=O)ncc7c6)CC5)cn4)c3)n2)c1 (stereo not shown) [ICT-0001305],,,IC50 (SNU-638; [1]): < 100 nM
Cc1nn(C2CCC(=O)NC2=O)c(=O)c2cc(N3CCC(CN4CCN(C(=O)CN5CCC(COc6cnc(-c7cccc(Cn8nc(-c9cccc(C#N)c9)ccc8=O)c7)nc6)CC5)CC4)CC3)ccc12 (stereo not shown) [ICT-0001234],< 100 nM,> 1000 nM,
Cc1nn(C2CCC(=O)NC2=O)c(=O)c2c(NCC(=O)N3CCC(COc4cnc(-c5cccc(Cn6nc(-c7cccc(C#N)c7)ccc6=O)c5)nc4)CC3)cccc12 (stereo not shown) [ICT-0000981],< 100 nM,> 1000 nM,
Cc1nn(C2CCC(=O)NC2=O)c(=O)c2cc(N3CCN(CC4CCN(C(=O)CN5CCC(COc6cnc(-c7cccc(Cn8nc(-c9cccc(C#N)c9)ccc8=O)c7)nc6)CC5)CC4)CC3)ccc12 (stereo not shown) [ICT-0001195],< 100 nM,< 100 nM,
Cc1nn(C2CCC(=O)NC2=O)c(=O)c2ccc(NCCOCCOCCOCCOCCC(=O)N3CCC(COc4cnc(-c5cccc(Cn6nc(-c7cccc(C#N)c7)ccc6=O)c5)nc4)CC3)cc12 (stereo not shown) [ICT-0001091],< 100 nM,< 100 nM,
Cc1nn(C2CCC(=O)NC2=O)c(=O)c2ccc(N3CCN(C[C@H]4CCN(CC(=O)N5CCC(COc6cnc(-c7cccc(Cn8nc(-c9cccc(C#N)c9)ccc8=O)c7)nc6)CC5)CO4)CC3)cc12 (stereo partly shown) [ICT-0001254],,100 to 1000 nM,IC50 (MKN-45; [3]): < 100 nM
N#Cc1cccc(-c2ccc(=O)n(Cc3cccc(-c4ncc(OCC5CCN(CCCCC(=O)N6CCN(c7ccc8c(=O)n(C9CCC(=O)NC9=O)ncc8c7)CC6)CC5)cn4)c3)n2)c1 (stereo not shown) [ICT-0001252],< 100 nM,< 100 nM,
"Cc1nn(C2CCC(=O)NC2=O)c(=O)c2cc(N3CCO[C@H](CN4CCN(CC(=O)N5CCC(COc6cnc(-c7cccc(Cn8nc(-c9cccc(C#N)c9)ccc8=O)c7)nc6)CC5)CC4)C3)ccc12 (stereo partly drawn) [ICT-0001271, 3-(1-(3-(5-((1-(2-(4-(((2R)-4-(3-(2,6-dioxopiperidin-3-yl)-1-methyl-4-oxo-3,4-dihydrophthalazine-6-yl)morpholine-2-il)methyl)piperazine-1-il)acetyl)piperidine-4-il)methoxy)pyrimidine-2-yl)benzyl)6-oxo-1,6-dihydropyridazine-3-yl)benzonitrile]",,< 100 nM,IC50 (MKN-45; [3]): < 100 nM
N#Cc1cccc(-c2ccc(=O)n(Cc3cccc(-c4ncc(OCC5CCN(C(=O)COCCOCCOCCNc6ccc7c(=O)n(C8CCC(=O)NC8=O)ncc7c6)CC5)cn4)c3)n2)c1 (stereo not shown) [ICT-0000987],,100 to 1000 nM,IC50 (MKN-45; [3]): < 100 nM
Cc1nn(C2CCC(=O)NC2=O)c(=O)c2ccc(N3CCC(CN4CCN(C(=O)CN5CCC(COc6cnc(-c7cccc(Cn8nc(-c9cccc(C#N)c9)ccc8=O)c7)nc6)CC5)CC4)CC3)cc12 (stereo not shown) [ICT-0001236],< 100 nM,< 100 nM,
Cc1nn(C2CCC(=O)NC2=O)c(=O)c2ccc(N3CCN(CC(=O)N4CCC(COc5cnc(-c6cccc(Cn7nc(-c8cccc(C#N)c8)ccc7=O)c6)nc5)CC4)CC3)cc12 (stereo not shown) [ICT-0001173],< 100 nM,< 100 nM,
Cc1nn(C2CCC(=O)NC2=O)c(=O)c2ccc(N3CCN(CC4CN(C(=O)CN5CCC(COc6cnc(-c7cccc(Cn8nc(-c9cccc(C#N)c9)ccc8=O)c7)nc6)CC5)C4)CC3)cc12 (stereo not shown) [ICT-0001235],< 100 nM,< 100 nM,
Cc1nn(C2CCC(=O)NC2=O)c(=O)c2cc(N3CCN(CCCCC(=O)N4CCC(COc5cnc(-c6cccc(Cn7nc(-c8cccc(C#N)c8)ccc7=O)c6)nc5)CC4)CC3)ccc12 (stereo not shown) [ICT-0001217],< 100 nM,< 100 nM,
